The numbers were not newly measured in patent publication US7989624B2, “Aryl spirolactam CGRP receptor antagonists” (Merck Sharp & Dohme Corp., priority 2004, dated 2011), which cites them from elsewhere.

Where no end group is shown, it is not given here.

Data set [1] concerns marmoset. The conditions noted are these: electrical stimulation of the trigeminal ganglion.
Data set [2] relates to migraine. Particulars: clinical studies, intravenously administered.
Data set [3] deals with rats. Particulars: electrical stimulation of the dura mater, prior administration.
The subject of data set [4] is rat. The conditions noted are these: trigeminal ganglion stimulation.

Consider `NCCCC[C@H](NC(=O)[C@@H](Cc1cc(Br)c(O)c(Br)c1)NC(=O)N1CCC(N2Cc3ccccc3NC2=O)CC1)C(=O)N1CCN(c2ccncc2)CC1` [BIBN4096BS], for which, in data set [1], the “increase in facial blood flow” value was “could be blocked”. The “acute treatment for migraine” value in data set [2] was “safe and effective”.
For the molecule “CGRP(8-37): a fragment of CGRP that lacks seven N-terminal amino acid residues; a peptide CGRP antagonist (VTHRLAGLLSRSGGVVKNNFVPTNVGSKAF; ends and bridges not checked; UniProt P06881 90-119, looked up, fragment)”, in data set [3], the “increase of the diameter of the middle meningeal artery” value is recorded as “blocked”. Besides, in data set [4], the “increased facial blood flow” value was “inhibited”.
